Experimental data published in the supplement of paper PMC10307832.

Assays:
Test in all cases: relative viability (nuclei count vs DMSO), 5 days (fraction); higher = more cells survive
HARA = system: HARA
Summary of the method: (§1)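 Relative viability equals treated-well nuclei counts divided by vehicle-well nuclei counts. Counts came from 4× images of lung cancer cell lines grown in 1536-well plates for 5 days after pin-tool dosing on the day after seeding. Dosing used one drug alone or a fixed anchor-drug dose plus five library-drug doses (not always all listed) in √10 steps, and values are medians of duplicate plates.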

NCI-H2228 = system: NCI-H2228
Summary of the method: as §1

NCI-H1993 = system: NCI-H1993
Summary of the method: as §1

NCI-H2170 = system: NCI-H2170
Summary of the method: as §1

SK-MES-1 = system: SK-MES-1
Summary of the method: as §1

ABC-1 = system: ABC-1
Summary of the method: as §1

A-427 = system: A-427
Summary of the method: as §1

NCI-H2009 = system: NCI-H2009
Summary of the method: as §1

NCI-H727 = system: NCI-H727
Summary of the method: as §1

NCI-H322M = system: NCI-H322M
Summary of the method: as §1

HOP-62 = system: HOP-62
Summary of the method: as §1

NCI-H1944 = system: NCI-H1944
Summary of the method: as §1

NCI-H3122 = system: NCI-H3122
Summary of the method: as §1

NCI-H596 = system: NCI-H596
Summary of the method: as §1

SW 900 = system: SW 900
Summary of the method: as §1

NCI-H1792 = system: NCI-H1792
Summary of the method: as §1

LK-2 = system: LK-2
Summary of the method: as §1

PC-3 [JPC-3] = system: PC-3 [JPC-3]
Summary of the method: as §1

NCI-H522 = system: NCI-H522
Summary of the method: as §1

EMC-BAC-2 = system: EMC-BAC-2
Summary of the method: as §1

LXF-289 = system: LXF-289
Summary of the method: as §1

SW 1573 = system: SW 1573
Summary of the method: as §1

## O=c1cc(-c2cccc3c2Sc2ccccc2S3)oc(N2CCOCC2)c1 + O=C(c1cc(Cc2n[nH]c(=O)c3ccccc23)ccc1F)N1CCN(C(=O)C2CC2)CC1 [Olaparib] (partner 8 µM)
HARA; first compound 0.08 µM
  relative viability: 1.13
HARA; first compound 0.253 µM
  relative viability: 0.711
HARA; first compound 0.8 µM
  relative viability: 0.774
HARA; first compound 2.53 µM
  relative viability: 0.629
HARA; first compound 8 µM
  relative viability: 0.777
NCI-H2228; first compound 0.08 µM
  relative viability: 0.691
NCI-H2228; first compound 0.253 µM
  relative viability: 0.869
NCI-H2228; first compound 0.8 µM
  relative viability: 0.799
NCI-H2228; first compound 2.53 µM
  relative viability: 0.83
NCI-H2228; first compound 8 µM
  relative viability: 0.733
NCI-H1993; first compound 0.08 µM
  relative viability: 1.05
NCI-H1993; first compound 0.253 µM
  relative viability: 1.1
NCI-H1993; first compound 0.8 µM
  relative viability: 0.986
NCI-H1993; first compound 2.53 µM
  relative viability: 0.965
NCI-H1993; first compound 8 µM
  relative viability: 1.12
NCI-H2170; first compound 0.08 µM
  relative viability: 0.585
NCI-H2170; first compound 0.253 µM
  relative viability: 0.699
NCI-H2170; first compound 0.8 µM
  relative viability: 0.689
NCI-H2170; first compound 2.53 µM
  relative viability: 0.641
NCI-H2170; first compound 8 µM
  relative viability: 0.617
SK-MES-1; first compound 0.08 µM
  relative viability: 0.756
SK-MES-1; first compound 0.253 µM
  relative viability: 0.892
SK-MES-1; first compound 0.8 µM
  relative viability: 0.708
SK-MES-1; first compound 2.53 µM
  relative viability: 0.705
SK-MES-1; first compound 8 µM
  relative viability: 0.467
ABC-1; first compound 0.08 µM
  relative viability: 0.821
ABC-1; first compound 0.253 µM
  relative viability: 0.718
ABC-1; first compound 0.8 µM
  relative viability: 0.735
ABC-1; first compound 2.53 µM
  relative viability: 0.777
ABC-1; first compound 8 µM
  relative viability: 0.75
A-427; first compound 0.08 µM
  relative viability: 0.7
A-427; first compound 0.253 µM
  relative viability: 0.776
A-427; first compound 0.8 µM
  relative viability: 0.637
A-427; first compound 2.53 µM
  relative viability: 0.684
A-427; first compound 8 µM
  relative viability: 0.777
NCI-H2009; first compound 0.08 µM
  relative viability: 0.746
NCI-H2009; first compound 0.253 µM
  relative viability: 0.731
NCI-H2009; first compound 0.8 µM
  relative viability: 0.798
NCI-H2009; first compound 2.53 µM
  relative viability: 0.662
NCI-H2009; first compound 8 µM
  relative viability: 0.765
NCI-H727; first compound 0.08 µM
  relative viability: 0.64
NCI-H727; first compound 0.253 µM
  relative viability: 0.679
NCI-H727; first compound 2.53 µM
  relative viability: 0.615
NCI-H727; first compound 8 µM
  relative viability: 0.68
NCI-H322M; first compound 0.08 µM
  relative viability: 0.523
NCI-H322M; first compound 0.253 µM
  relative viability: 0.751
NCI-H322M; first compound 0.8 µM
  relative viability: 0.746
NCI-H322M; first compound 2.53 µM
  relative viability: 0.811
NCI-H322M; first compound 8 µM
  relative viability: 0.729
HOP-62; first compound 0.08 µM
  relative viability: 0.374
HOP-62; first compound 0.253 µM
  relative viability: 0.52
HOP-62; first compound 0.8 µM
  relative viability: 0.543
HOP-62; first compound 2.53 µM
  relative viability: 0.49
HOP-62; first compound 8 µM
  relative viability: 0.576
NCI-H1944; first compound 0.08 µM
  relative viability: 0.401
NCI-H1944; first compound 0.253 µM
  relative viability: 0.401
NCI-H1944; first compound 0.8 µM
  relative viability: 0.414
NCI-H1944; first compound 2.53 µM
  relative viability: 0.43
NCI-H1944; first compound 8 µM
  relative viability: 0.397
NCI-H3122; first compound 0.08 µM
  relative viability: 0.658
NCI-H3122; first compound 0.253 µM
  relative viability: 0.745
NCI-H3122; first compound 0.8 µM
  relative viability: 0.584
NCI-H3122; first compound 2.53 µM
  relative viability: 0.604
NCI-H3122; first compound 8 µM
  relative viability: 0.63
NCI-H596; first compound 0.08 µM
  relative viability: 0.664
NCI-H596; first compound 0.253 µM
  relative viability: 0.631
NCI-H596; first compound 0.8 µM
  relative viability: 0.504
NCI-H596; first compound 2.53 µM
  relative viability: 0.587
NCI-H596; first compound 8 µM
  relative viability: 0.585
SW 900; first compound 0.253 µM
  relative viability: 0.999
SW 900; first compound 0.8 µM
  relative viability: 0.824
SW 900; first compound 2.53 µM
  relative viability: 0.702
SW 900; first compound 8 µM
  relative viability: 0.773
NCI-H1792; first compound 0.08 µM
  relative viability: 0.384
NCI-H1792; first compound 0.253 µM
  relative viability: 0.352
NCI-H1792; first compound 0.8 µM
  relative viability: 0.341
NCI-H1792; first compound 2.53 µM
  relative viability: 0.321
NCI-H1792; first compound 8 µM
  relative viability: 0.286
LK-2; first compound 0.08 µM
  relative viability: 0.833
LK-2; first compound 0.253 µM
  relative viability: 0.793
LK-2; first compound 0.8 µM
  relative viability: 0.79
LK-2; first compound 2.53 µM
  relative viability: 0.62
LK-2; first compound 8 µM
  relative viability: 0.749
PC-3 [JPC-3]; first compound 0.08 µM
  relative viability: 1.13
PC-3 [JPC-3]; first compound 0.253 µM
  relative viability: 1.01
PC-3 [JPC-3]; first compound 0.8 µM
  relative viability: 0.95
PC-3 [JPC-3]; first compound 2.53 µM
  relative viability: 1.09
PC-3 [JPC-3]; first compound 8 µM
  relative viability: 1.19
NCI-H522; first compound 0.08 µM
  relative viability: 0.615
NCI-H522; first compound 0.253 µM
  relative viability: 0.621
NCI-H522; first compound 0.8 µM
  relative viability: 0.612
NCI-H522; first compound 2.53 µM
  relative viability: 0.723
NCI-H522; first compound 8 µM
  relative viability: 0.576
EMC-BAC-2; first compound 0.08 µM
  relative viability: 0.523
EMC-BAC-2; first compound 0.253 µM
  relative viability: 0.568
EMC-BAC-2; first compound 0.8 µM
  relative viability: 0.518
EMC-BAC-2; first compound 2.53 µM
  relative viability: 0.571
EMC-BAC-2; first compound 8 µM
  relative viability: 0.514
LXF-289; first compound 0.08 µM
  relative viability: 1.17
LXF-289; first compound 0.253 µM
  relative viability: 1.36
LXF-289; first compound 0.8 µM
  relative viability: 1.18
LXF-289; first compound 2.53 µM
  relative viability: 1.11
LXF-289; first compound 8 µM
  relative viability: 1.21
SW 1573; first compound 0.08 µM
  relative viability: 0.513
SW 1573; first compound 0.253 µM
  relative viability: 0.574
SW 1573; first compound 0.8 µM
  relative viability: 0.613
SW 1573; first compound 2.53 µM
  relative viability: 0.487
SW 1573; first compound 8 µM
  relative viability: 0.44
